Data: patent publication US20230329236A1, “HERBICIDAL PYRIMIDINE DERIVATIVES” (MoA Technology Limited, priority 2020, published 2023)

Tests used:
[1] = tested on: Lolium multiflorum (LOLMU); experiment: Post-emergence glasshouse test, visual injury, LOLMU; format: in vivo; settings: 336 h, 14±1 days post application
Procedure, shortened: (§1)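 Percent visual injury relative to untreated plots is scored 14±1 days after treatment. Plants grow in sandy loam under controlled glasshouse conditions and are sprayed at BBCH 12-14 with an aqueous solution of compound in acetone/water (50:50) with 0.5% Tween 20, dosed in g/ha.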

[2] = tested on: Echinochloa crus-gaffi (ECHCG); experiment: Post-emergence glasshouse test, visual injury, ECHCG; format: in vivo, Echinochloa crus-galli; settings: 336 h, 14±1 days post application
Procedure, shortened: as §1

Veronica persica (VERPE) = experiment: Post-emergence glasshouse test, visual injury, VERPE; format: in vivo; settings: 336 h, 14±1 days post application
Procedure, shortened: as §1

[3] = tested on: Amaranthus retroflexus (AMARE); experiment: Post-emergence glasshouse test, visual injury, AMARE; format: in vivo; settings: 336 h, 14±1 days post application
Procedure, shortened: as §1

Glycine max (GLXMA) = experiment: Post-emergence glasshouse test, visual injury, GLXMA; format: in vivo; settings: Table 4, post-emergence, 14±1 days post application
Method: (§2) Seeds of a variety of test species are grown in a sandy loam soil mixture, Lolium multiflorum (LOLMU), Amaranthus retroflexus (AMARE), Echinochloa crus-gaffi (ECHCG), Veronica persica (VERPE), Glycine max (GLXMA), Oryza sativa (ORYSA), Zea mays (ZEAMX), spring wheat (TRZAS), Ipomoea hederacea (IPOHE), Ipomoea purpurea (PHBPU), Stellaria media (STEME), Solanum nigrum (SOLNI), Digitaria sanguinalis (DIGSA), Setaria italica (SETIT), Alopecurus myosuroides (ALOMY) and Avena fatua (AVEFA).
(§3) After sowing, at growth stage BBCH 12-14 (post-emergence), the plants are sprayed with an aqueous spray solution derived from the formulation of the technical active ingredient in acetone/water (50:50) solution containing 0.5% Tween 20 (polyoxyethlyene sorbitan monolaureate, CAS RN 9005-64-5). The test compounds are applied at the required concentration of active ingredient in g/ha. The test plants are then grown in a glasshouse under controlled environmental conditions and watered regularly as required. After 14±1 days post application (for post-emergence test), the test is evaluated by assessing the percentage damage caused to the plants in comparison with the untreated plots. The biological activities for post-emergence testing are shown below (Table 3 and Table 4) as a % visual injury.

Oryza sativa (ORYSA) = experiment: Post-emergence glasshouse test, visual injury, ORYSA; format: in vivo; settings: Table 4, post-emergence, 14±1 days post application
Method: as §2, §3

Zea mays (ZEAMX) = experiment: Post-emergence glasshouse test, visual injury, ZEAMX; format: in vivo; settings: Table 4, post-emergence, 14±1 days post application
Method: as §2, §3

spring wheat (TRZAS) = experiment: Post-emergence glasshouse test, visual injury, TRZAS; format: in vivo; settings: Table 4, post-emergence, 14±1 days post application
Method: as §2, §3

[4] = tested on: Ipomoea hederacea (IPOHE); experiment: Post-emergence glasshouse test, visual injury, IPOHE; format: in vivo; settings: Table 4, post-emergence, 14±1 days post application
Method: as §2, §3

Ipomoea purpurea (PHBPU) = experiment: Post-emergence glasshouse test, visual injury, PHBPU; format: in vivo; settings: Table 4, post-emergence, 14±1 days post application
Method: as §2, §3

Stellaria media (STEME) = experiment: Post-emergence glasshouse test, visual injury, STEME; format: in vivo; settings: Table 4, post-emergence, 14±1 days post application
Method: as §2, §3

Solanum nigrum (SOLNI) = experiment: Post-emergence glasshouse test, visual injury, SOLNI; format: in vivo; settings: Table 4, post-emergence, 14±1 days post application
Method: as §2, §3

[5] = tested on: Digitaria sanguinalis (DIGSA); experiment: Post-emergence glasshouse test, visual injury, DIGSA; format: in vivo; settings: Table 4, post-emergence, 14±1 days post application
Method: as §2, §3

Setaria italica (SETIT) = experiment: Post-emergence glasshouse test, visual injury, SETIT; format: in vivo; settings: Table 4, post-emergence, 14±1 days post application
Method: as §2, §3

[6] = tested on: Alopecurus myosuroides (ALOMY); experiment: Post-emergence glasshouse test, visual injury, ALOMY; format: in vivo; settings: Table 4, post-emergence, 14±1 days post application
Method: as §2, §3

Avena fatua (AVEFA) = experiment: Post-emergence glasshouse test, visual injury, AVEFA; format: in vivo; settings: Table 4, post-emergence, 14±1 days post application
Method: as §2, §3

[7] = Table 4, post-emergence, 125 g/ha
[8] = Table 4, post-emergence, 250 g/ha
[9] = Table 4, post-emergence, 1000 g/ha

Cc1cc(-c2cnc(NC3CCCC3)nc2C(C)C)on1 [Compound 45]
pest or weed control at 500 g/ha ([1]; Table 3, post-emergence): 70% | pest or weed control at 125 g/ha [1, 7]: 40% | pest or weed control at 250 g/ha [1, 8]: 60% | pest or weed control at 500 g/ha ([1]; Table 4, post-emergence): 90% | pest or weed control at 1000 g/ha [1, 9]: 100% | pest or weed control at 500 g/ha ([2]; Table 3, post-emergence): 100% | pest or weed control at 125 g/ha [2, 7]: 70% | pest or weed control at 250 g/ha [2, 8]: 80% | pest or weed control at 500 g/ha ([2]; Table 4, post-emergence): 80% | pest or weed control at 1000 g/ha [2, 9]: 90% | pest or weed control at 500 g/ha (Veronica persica (VERPE); Table 3, post-emergence): 100% | pest or weed control at 125 g/ha (Veronica persica (VERPE); [7]): 100% | pest or weed control at 250 g/ha (Veronica persica (VERPE); [8]): 100% | pest or weed control at 500 g/ha (Veronica persica (VERPE); Table 4, post-emergence): 100% | pest or weed control at 1000 g/ha (Veronica persica (VERPE); [9]): 100% | pest or weed control at 500 g/ha ([3]; Table 3, post-emergence): 100% | pest or weed control at 125 g/ha [3, 7]: 95% | pest or weed control at 250 g/ha [3, 8]: 90% | pest or weed control at 500 g/ha ([3]; Table 4, post-emergence): 100% | pest or weed control at 1000 g/ha [3, 9]: 100% | GLXMA % visual injury (Glycine max (GLXMA); 125 g/ha): 20% | GLXMA % visual injury (Glycine max (GLXMA); 250 g/ha): 50% | GLXMA % visual injury (Glycine max (GLXMA); 500 g/ha): 40% | GLXMA % visual injury (Glycine max (GLXMA); 1000 g/ha): 50% | ORYSA % visual injury (Oryza sativa (ORYSA); 125 g/ha): 50% | ORYSA % visual injury (Oryza sativa (ORYSA); 250 g/ha): 99% | ORYSA % visual injury (Oryza sativa (ORYSA); 500 g/ha): 90% | ORYSA % visual injury (Oryza sativa (ORYSA); 1000 g/ha): 80% | ZEAMX % visual injury (Zea mays (ZEAMX); 125 g/ha): 0% | ZEAMX % visual injury (Zea mays (ZEAMX); 250 g/ha): 0% | ZEAMX % visual injury (Zea mays (ZEAMX); 500 g/ha): 70% | ZEAMX % visual injury (Zea mays (ZEAMX); 1000 g/ha): 40% | TRZAS % visual injury (spring wheat (TRZAS); 125 g/ha): 0% | TRZAS % visual injury (spring wheat (TRZAS); 250 g/ha): 30% | TRZAS % visual injury (spring wheat (TRZAS); 500 g/ha): 30% | TRZAS % visual injury (spring wheat (TRZAS); 1000 g/ha): 40% | IPOHE % visual injury ([4]; 125 g/ha): 0% | IPOHE % visual injury ([4]; 250 g/ha): 50% | IPOHE % visual injury ([4]; 500 g/ha): 40% | IPOHE % visual injury ([4]; 1000 g/ha): 60% | PHBPU % visual injury (Ipomoea purpurea (PHBPU); 125 g/ha): 50% | PHBPU % visual injury (Ipomoea purpurea (PHBPU); 250 g/ha): 70% | PHBPU % visual injury (Ipomoea purpurea (PHBPU); 500 g/ha): 70% | PHBPU % visual injury (Ipomoea purpurea (PHBPU); 1000 g/ha): 70% | STEME % visual injury (Stellaria media (STEME); 125 g/ha): 100% | STEME % visual injury (Stellaria media (STEME); 250 g/ha): 100% | STEME % visual injury (Stellaria media (STEME); 500 g/ha): 100% | STEME % visual injury (Stellaria media (STEME); 1000 g/ha): 100% | SOLNI % visual injury (Solanum nigrum (SOLNI); 125 g/ha): 98% | SOLNI % visual injury (Solanum nigrum (SOLNI); 250 g/ha): 100% | SOLNI % visual injury (Solanum nigrum (SOLNI); 500 g/ha): 100% | SOLNI % visual injury (Solanum nigrum (SOLNI); 1000 g/ha): 100% | DIGSA % visual injury ([5]; 125 g/ha): 80% | DIGSA % visual injury ([5]; 250 g/ha): 70% | DIGSA % visual injury ([5]; 500 g/ha): 95% | DIGSA % visual injury ([5]; 1000 g/ha): 98% | SETIT % visual injury (Setaria italica (SETIT); 125 g/ha): 50% | SETIT % visual injury (Setaria italica (SETIT); 250 g/ha): 80% | SETIT % visual injury (Setaria italica (SETIT); 500 g/ha): 95% | SETIT % visual injury (Setaria italica (SETIT); 1000 g/ha): 95% | ALOMY % visual injury ([6]; 125 g/ha): 50% | ALOMY % visual injury ([6]; 250 g/ha): 70% | ALOMY % visual injury ([6]; 500 g/ha): 50% | ALOMY % visual injury ([6]; 1000 g/ha): 80% | AVEFA % visual injury (Avena fatua (AVEFA); 125 g/ha): 0% | AVEFA % visual injury (Avena fatua (AVEFA); 250 g/ha): 40% | AVEFA % visual injury (Avena fatua (AVEFA); 500 g/ha): 60% | AVEFA % visual injury (Avena fatua (AVEFA); 1000 g/ha): 70%
